The values that follow are results of earlier work, collected in US8591947B2, “Dual controlled release dosage form” (Osmotica Kereskedelmi és Szolgáltató KFT, priority 2001, dated 2013).

Structures can show the parent of a compound that is named as a salt.

As to `CC(=O)Nc1ccc(O)cc1` [acetaminophen], the “Solubility of component in water (U.S.P. term)” value (shortened to “Solubility … (U.S.P. term)”) was “very slightly soluble”. Turning to `Nc1nc2c(ncn2COCCO)c(=O)[nH]1` [acyclovir], the “Solubility … (U.S.P. term)” value is “slightly soluble”. As to `CC(C)(C)NCC(O)c1ccc(O)c(CO)c1` (stereo not drawn) [albuterol], the “Solubility … (U.S.P. term)” value is “sparingly soluble”.

Turning to `Oc1ncnc2[nH]ncc12` [allopurinol], the “Solubility … (U.S.P. term)” value is given as “very slightly soluble”. With `CN(C)CCC=C1c2ccccc2CCc2ccccc21` [amitriptyline], the “Solubility … (U.S.P. term)” value was “freely soluble”. In the case of `CCOC(=O)C1=C(COCCN)NC(C)=C(C(=O)OC)C1c1ccccc1Cl` (stereo not drawn) [amlodipine besylate], the “Solubility … (U.S.P. term)” value is listed as “slightly soluble”. For the molecule `CC(=O)Oc1ccccc1C(=O)O` [aspirin], the “Solubility … (U.S.P. term)” value is on record as “slightly soluble”.

In the case of `CC[C@H]1OC(=O)[C@H](C)[C@@H](O[C@H]2C[C@@](C)(OC)[C@@H](O)[C@H](C)O2)[C@H](C)[C@@H](O[C@@H]2O[C@H](C)C[C@H](N(C)C)[C@H]2O)[C@](C)(O)C[C@@H](C)CN(C)[C@H](C)[C@@H](O)[C@]1(C)O` [azithromycin dihydrate], the “Solubility … (U.S.P. term)” value is on record as “practically insoluble”. Turning to `CCOC(=O)[C@H](CCc1ccccc1)N[C@H]1CCc2ccccc2N(CC(=O)O)C1=O` [benazepril], the “Solubility … (U.S.P. term)” value was “soluble”.

Regarding `CC(NC(C)(C)C)C(=O)c1cccc(Cl)c1` (stereo not drawn) [bupropion HCl], the “Solubility … (U.S.P. term)” value is “soluble”. In the case of `O=C1CC2(CCCC2)CC(=O)N1CCCCN1CCN(c2ncccn2)CC1` [buspirone HCl], the “Solubility … (U.S.P. term)” value is recorded as “freely soluble”. Consider `C[C@H](CS)C(=O)N1CCC[C@H]1C(=O)O` [captopril], for which the “Solubility … (U.S.P. term)” value was “freely soluble”. As to `NC(=O)N1c2ccccc2C=Cc2ccccc21` [carbamazepine], the “Solubility … (U.S.P. term)” value is recorded as “practically insoluble”. In the case of `COc1ccccc1OCCNCC(O)COc1cccc2[nH]c3ccccc3c12` (stereo not drawn) [carvedilol], the “Solubility … (U.S.P. term)” value was “practically insoluble”. On to `Cc1ccc(-c2cc(C(F)(F)F)nn2-c2ccc(S(N)(=O)=O)cc2)cc1` [celecoxib], for which the “Solubility … (U.S.P. term)” value was “practically insoluble”. As for `CN/C(=N/CCSCc1nc[nH]c1C)NC#N` [cimetidine], the “Solubility … (U.S.P. term)” value is recorded as “sparingly soluble”.

As to `COc1cc(N)c(Cl)cc1C(=O)NC1CCN(CCCOc2ccc(F)cc2)CC1OC` (stereo not drawn) [cisapride monohydrate], the “Solubility … (U.S.P. term)” value was “practically insoluble”. `CN(C)CCCC1(c2ccc(F)cc2)OCc2cc(C#N)ccc21` (stereo not drawn) [citalopram]: the “Solubility … (U.S.P. term)” value is “sparingly soluble”. Turning to `Clc1cccc(Cl)c1N=C1NCCN1` [clonidine HCl], the “Solubility … (U.S.P. term)” value was “soluble”. For `COC(=O)[C@H](c1ccccc1Cl)N1CCc2sccc2C1` [clopidogrel bisulfate], the “Solubility … (U.S.P. term)” value was “practically insoluble”. On to `CN(C)CCC=C1c2ccccc2C=Cc2ccccc21` [cyclobenzaprine HCl], for which the “Solubility … (U.S.P. term)” value is “freely soluble”. Consider `COc1ccc([C@@H]2Sc3ccccc3N(CCN(C)C)C(=O)[C@@H]2OC(C)=O)cc1` [diltiazem HCl], for which the “Solubility … (U.S.P. term)” value was “freely soluble”. As for `COc1cc2nc(N3CCN(C(=O)C4COc5ccccc5O4)CC3)nc(N)c2cc1OC` (stereo not drawn) [doxazosin mesylate], the “Solubility … (U.S.P. term)” value was “slightly soluble”. For the molecule `C[C@H]1c2cccc(O)c2C(=O)C2=C(O)[C@]3(O)C(=O)C(C(N)=O)=C(O)[C@@H](N(C)C)[C@@H]3[C@@H](O)[C@@H]21` [doxycycline hydrate], the “Solubility … (U.S.P. term)” value was “soluble”. For `CCOC(=O)[C@H](CCc1ccccc1)N[C@@H](C)C(=O)N1CCC[C@H]1C(=O)O` [enalapril maleate], the “Solubility … (U.S.P. term)” value was “sparingly soluble”. As to `CCOC(=O)C1=C(C)NC(C)=C(C(=O)OC)C1c1cccc(Cl)c1Cl` (stereo not drawn) [felodipine], the “Solubility … (U.S.P. term)” value is “practically insoluble”. With `OC(Cn1cncn1)(Cn1cncn1)c1ccc(F)cc1F` [fluconazole], the “Solubility … (U.S.P. term)” value was “slightly soluble”.

For `CCC(=O)O[C@]1(C(=O)SCF)[C@H](C)C[C@H]2[C@@H]3C[C@H](F)C4=CC(=O)C=C[C@]4(C)[C@@]3(F)[C@@H](O)C[C@@]21C` [fluticasone propionate], the “Solubility … (U.S.P. term)” value is “practically insoluble”. On to `CCC(=O)O[C@@H](O[P@](=O)(CCCCc1ccccc1)CC(=O)N1C[C@H](C2CCCCC2)C[C@H]1C(=O)O)C(C)C` [fosinopril sodium], for which the “Solubility … (U.S.P. term)” value is reported as “soluble”. For `NCC1(CC(=O)O)CCCCC1` [gabapentin], the “Solubility … (U.S.P. term)” value was “freely soluble”. Consider `COc1ccc2c3c1O[C@H]1C[C@@H](O)C=C[C@@]31CCN(C)C2` [galantamine HBr], for which the “Solubility … (U.S.P. term)” value is reported as “sparingly soluble”. For the molecule `COc1ccc(Cl)cc1C(=O)NCCc1ccc(S(=O)(=O)NC(=O)NC2CCCCC2)cc1` [glyburide], the “Solubility … (U.S.P. term)” value is recorded as “practically insoluble”. As for `COc1ccc2c3c1O[C@H]1C(=O)CC[C@H]4[C@@H](C2)N(C)CC[C@]314.O=C(O)C(O)C(O)C(=O)O` [hydrocodone bitartrate], the “Solubility … (U.S.P. term)” value was “soluble”. Regarding `OCCOCCN1CCN(C(c2ccccc2)c2ccc(Cl)cc2)CC1` (stereo not drawn) [hydroxyzine], the “Solubility … (U.S.P. term)” value is listed as “very soluble”. Take `CC(C)Cc1ccc(C(C)C(=O)O)cc1` (stereo not drawn) [ibuprofen]: the “Solubility … (U.S.P. term)” value was “very slightly soluble”. Take `O=[N+]([O-])O[C@@H]1CO[C@H]2[C@@H]1OC[C@@H]2O` [isosorbide mononitrate]: the “Solubility … (U.S.P. term)” value is on record as “freely soluble”. For `Cc1c(OCC(F)(F)F)ccnc1C[S+]([O-])c1nc2ccccc2[nH]1` (stereo not drawn) [lansoprazole], the “Solubility … (U.S.P. term)” value was “practically insoluble”. Turning to `CC[C@@H](C(N)=O)N1CCCC1=O` [levetiracetam], the “Solubility … (U.S.P. term)” value is “very soluble”. Consider `NCCCC[C@H](N[C@@H](CCc1ccccc1)C(=O)O)C(=O)N1CCC[C@H]1C(=O)O` [lisinopril], for which the “Solubility … (U.S.P. term)” value is “soluble”. `CCCCc1nc(Cl)c(CO)n1Cc1ccc(-c2ccccc2-c2nn[nH]n2)cc1` [losartan potassium]: the “Solubility … (U.S.P. term)” value is listed as “freely soluble”. Consider `Cc1cccc(CN2CCN(C(c3ccccc3)c3ccc(Cl)cc3)CC2)c1` (stereo not drawn) [meclizine HCl], for which the “Solubility … (U.S.P. term)” value is “soluble”.

Consider `CC12CC3CC(C)(C1)CC(N)(C3)C2` [memantine HCl], for which the “Solubility … (U.S.P. term)” value is given as “slightly soluble”.

As for `COCCc1ccc(OCC(O)CNC(C)C)cc1` (stereo not drawn) [metoprolol tartrate], the “Solubility … (U.S.P. term)” value is reported as “very soluble”.

As to `Cc1ncc([N+](=O)[O-])n1CCO` [metronidazole], the “Solubility … (U.S.P. term)” value is “sparingly soluble”. In the case of `C[C@@H]1C[C@H]2[C@@H]3CCC4=CC(=O)C=C[C@]4(C)[C@@]3(Cl)[C@@H](O)C[C@]2(C)[C@@]1(OC(=O)c1ccco1)C(=O)CCl` [mometasone furoate], the “Solubility … (U.S.P. term)” value is recorded as “practically insoluble”. For `COC(=O)C1=C(C)NC(C)=C(C(=O)OCC(C)C)C1c1ccccc1[N+](=O)[O-]` (stereo not drawn) [nisoldipine], the “Solubility … (U.S.P. term)” value is “practically insoluble”. `Cc1cc2c(s1)Nc1ccccc1N=C2N1CCN(C)CC1` [olanzapine]: the “Solubility … (U.S.P. term)” value was “practically insoluble”. As for `COc1ccc2[nH]c([S+]([O-])Cc3ncc(C)c(OC)c3C)nc2c1` (stereo not drawn) [omeprazole], the “Solubility … (U.S.P. term)” value is “very slightly soluble”.

Turning to `COc1ccc2c3c1O[C@H]1C(=O)CC[C@@]4(O)[C@@H](C2)N(C)CC[C@]314` [oxycodone], the “Solubility … (U.S.P. term)” value is on record as “soluble”. For `Fc1ccc([C@@H]2CCNC[C@H]2COc2ccc3c(c2)OCO3)cc1` [paroxetine HCl], the “Solubility … (U.S.P. term)” value is “slightly soluble”. For the molecule `O=C1N=C([O-])NC1(c1ccccc1)c1ccccc1.[Na+]` [phenyloin sodium], the “Solubility … (U.S.P. term)” value is listed as “soluble”.

For `CC(C)NCC(O)COc1cccc2[nH]ccc12` (stereo not drawn) [pindolol], the “Solubility … (U.S.P. term)” value is “practically insoluble”. For `CCc1ccc(CCOc2ccc(CC3SC(=O)NC3=O)cc2)nc1` (stereo not drawn) [pioglitazone HCl], the “Solubility … (U.S.P. term)” value is listed as “practically insoluble”. As for `CC[C@H](C)C(=O)O[C@H]1C[C@H](O)C=C2C=C[C@H](C)[C@H](CC[C@@H](O)C[C@@H](O)CC(=O)O)[C@H]21` [pravastatin sodium], the “Solubility … (U.S.P. term)” value was “soluble”.

With `C[C@]12C=CC(=O)C=C1CC[C@@H]1[C@@H]2C(=O)C[C@@]2(C)[C@H]1CC[C@]2(O)C(=O)CO` [prednisone], the “Solubility … (U.S.P. term)” value is given as “very slightly soluble”.

With `CC(CN1c2ccccc2Sc2ccccc21)N(C)C` (stereo not drawn) [promethazine HCl], the “Solubility … (U.S.P. term)” value is “soluble”. Turning to `CCC(=O)O[C@](Cc1ccccc1)(c1ccccc1)[C@H](C)CN(C)C.Cl` [propoxiphene HCl], the “Solubility … (U.S.P. term)” value is given as “freely soluble”.

As for `CC(C)NCC(O)COc1cccc2ccccc12` (stereo not drawn) [propranolol HCl], the “Solubility … (U.S.P. term)” value was “soluble”. As to `CCOC(=O)[C@H](CCc1ccccc1)N[C@@H](C)C(=O)N1Cc2ccccc2C[C@H]1C(=O)O` [quinapril], the “Solubility … (U.S.P. term)” value was “freely soluble”. With `COCCCOc1ccnc(C[S+]([O-])c2nc3ccccc3[nH]2)c1C` (stereo not drawn) [rabeprazole sodium], the “Solubility … (U.S.P. term)” value is “very soluble”. As for `Cl.O=C(c1ccc(OCCN2CCCCC2)cc1)c1c(-c2ccc(O)cc2)sc2cc(O)ccc12` [ralozifene HCL], the “Solubility … (U.S.P. term)” value was “very slightly soluble”.

Regarding `CCOC(=O)[C@H](CCc1ccccc1)N[C@@H](C)C(=O)N1[C@H](C(=O)O)C[C@@H]2CCC[C@@H]21` [ramipril], the “Solubility … (U.S.P. term)” value is recorded as “slightly soluble”. Turning to `CNC(=C[N+](=O)[O-])NCCSCc1ccc(CN(C)C)o1` [ranitidine HCl], the “Solubility … (U.S.P. term)” value is on record as “very soluble”.
